Reference: patent US9873709B2 (priority 2013, dated 2018)
Structures can show the parent of a compound that is named as a salt.

Each compound was assayed on JAK1-dependent STAT6 phosphorylation downstream of IL-13 stimulation in TF-1 human erythroleukemia cells (assay: cells). Conditions: TF-1, read-out: IL-13-pSTAT6 IC50.

Row | IC50 | SMILES
1 | 18.9 nM | CCOC(=O)N1CC=C(c2cccn3nc(Nc4ccc(C(=O)N5CC(N)C5)cc4)nc23)CC1 [Example 2-74, ethyl 4-[2-[4-(3-aminoazetidine-1-carbonyl)anilino]-[1,2,4]triazolo[1,5-a]pyridin-8-yl]-3,6-dihydro-2H-pyridine-1-carboxylate]
2 | 134 nM | CCOC(=O)N1CC=C(c2cccn3nc(Nc4ccc(C(=O)N5CC6(CNC6)C5)cc4)nc23)CC1 [Example 2-77, ethyl 4-[2-[4-(2,6-diazaspiro[3.3]heptane-2-carbonyl)anilino]-[1,2,4]triazolo[1,5-a]pyridin-8-yl]-3,6-dihydro-2H-pyridine-1-carboxylate]
3 | 360 nM | CCOC(=O)N1CC=C(c2cccn3nc(Nc4ccc(C(=O)N5CCC6(CCNC6)C5)cc4)nc23)CC1 (centres unmarked) [Example 2-78, ethyl 4-[2-[4-(2,7-diazaspiro[4.4]nonane-2-carbonyl)anilino]-[1,2,4]triazolo[1,5-a]pyridin-8-yl]-3,6-dihydro-2H-pyridine-1-carboxylate]
4 | 79.4 nM | NCC1CCCN1C(=O)c1ccc(Nc2nc3c(C4=CCN(C(=O)CCC(F)(F)F)CC4)cccn3n2)cc1 (centres unmarked) [Example 2-80, 1-[4-[2-[4-[2-(aminomethyl)pyrrolidine-1-carbonyl]anilino]-[1,2,4]triazolo[1,5-a]pyridin-8-yl]-3,6-dihydro-2H-pyridin-1-yl]-4,4,4-trifluoro-butan-1-one]
5 | 60 nM | O=C(CCC(F)(F)F)N1CC=C(c2cccn3nc(Nc4ccc(C(=O)N5CC6(CCNCC6)C5)cc4)nc23)CC1 [Example 2-81, 1-[4-[2-[4-(2,7-diazaspiro[3.5]nonane-2-carbonyl)anilino]-[1,2,4]triazolo[1,5-a]pyridin-8-yl]-3,6-dihydro-2H-pyridin-1-yl]-4,4,4-trifluoro-butan-1-one]
6 | 224 nM | O=C(CCC(F)(F)F)N1CC=C(c2cccn3nc(Nc4ccc(C(=O)N5CCOC6(CCCNC6)C5)cc4)nc23)CC1 (centres unmarked) [Example 2-82, 4,4,4-trifluoro-1-[4-[2-[4-(1-oxa-4,8-diazaspiro[5.5]undecane-4-carbonyl)anilino]-[1,2,4]triazolo[1,5-a]pyridin-8-yl]-3,6-dihydro-2H-pyridin-1-yl]butan-1-one]
7 | 197 nM | O=C(NCC1CCC2(CCNCC2)O1)c1ccc(Nc2nc3c(C4=CCN(C(=O)CCC(F)(F)F)CC4)cccn3n2)cc1 (centres unmarked) [Example 2-83, N-(1-oxa-8-azaspiro[4.5]decan-2-ylmethyl)-4-[[8-[1-(4,4,4-trifluorobutanoyl)-3,6-dihydro-2H-pyridin-4-yl]-[1,2,4]triazolo[1,5-a]pyridin-2-yl]amino]benzamide]
8 | 71.4 nM | O=C(NCC1CCNCC1)c1ccc(Nc2nc3c(C4=CCN(C(=O)CCC(F)(F)F)CC4)cccn3n2)cc1 [Example 2-84, N-(4-piperidylmethyl)-4-[[8-[1-(4,4,4-trifluorobutanoyl)-3,6-dihydro-2H-pyridin-4-yl]-[1,2,4]triazolo[1,5-a]pyridin-2-yl]amino]benzamide]
9 | 62.6 nM | CNC1CCN(C(=O)c2ccc(Nc3nc4c(C5=CCN(C(=O)CCC(F)(F)F)CC5)cccn4n3)cc2)C1 (centres unmarked) [Example 2-85, 4,4,4-trifluoro-1-[4-[2-[4-[3-(methylamino)pyrrolidine-1-carbonyl]anilino]-[1,2,4]triazolo[1,5-a]pyridin-8-yl]-3,6-dihydro-2H-pyridin-1-yl]butan-1-one]
10 | 216 nM | O=C(NCCC1CCNCC1)c1ccc(Nc2nc3c(C4=CCN(C(=O)CCC(F)(F)F)CC4)cccn3n2)cc1 [Example 2-86, N-[2-(4-piperidyl)ethyl]-4-[[8-[1-(4,4,4-trifluorobutanoyl)-3,6-dihydro-2H-pyridin-4-yl]-[1,2,4]triazolo[1,5-a]pyridin-2-yl]amino]benzamide]
11 | 8.6 nM | CN1CC2CN(C(=O)c3ccc(Nc4nc5c(C6=CCN(C(=O)CCC(F)(F)F)CC6)cccn5n4)cc3)CC2C1 (centres unmarked) [Example 2-87, 4,4,4-trifluoro-1-[4-[2-[4-(2-methyl-1,3,3a,4,6,6a-hexahydropyrrolo[3,4-c]pyrrole-5-carbonyl)anilino]-[1,2,4]triazolo[1,5-a]pyridin-8-yl]-3,6-dihydro-2H-pyridin-1-yl]butan-1-one]
12 | 20.9 nM | Cc1cc(N(C)C)cc(C2CCCN2C(=O)c2ccc(Nc3nc4c(C5=CCN(C(=O)CCC(F)(F)F)CC5)cccn4n3)cc2)n1 (centres unmarked) [Example 2-92, 1-[4-[2-[4-[2-[4-(dimethylamino)-6-methyl-2-pyridyl]pyrrolidine-1-carbonyl]anilino]-[1,2,4]triazolo[1,5-a]pyridin-8-yl]-3,6-dihydro-2H-pyridin-1-yl]-4,4,4-trifluoro-butan-1-one]
13 | 4.7 nM | CN1CCCC2(CCCN(C(=O)c3ccc(Nc4nc5c(C6=CCN(C(=O)CCC(F)(F)F)CC6)cccn5n4)cc3)C2)C1 (centres unmarked) [Example 2-93, 4,4,4-trifluoro-1-[4-[2-[4-(8-methyl-2,8-diazaspiro[5.5]undecane-2-carbonyl)anilino]-[1,2,4]triazolo[1,5-a]pyridin-8-yl]-3,6-dihydro-2H-pyridin-1-yl]butan-1-one]
14 | 23.6 nM | CCOC(=O)N1CC=C(c2cccn3nc(Nc4ccc(C(=O)OC5CCN(C)CC5)cc4)nc23)CC1 [Example 2-94, ethyl 4-[2-[4-[(1-methyl-4-piperidyl)oxycarbonyl]anilino]-[1,2,4]triazolo[1,5-a]pyridin-8-yl]-3,6-dihydro-2H-pyridine-1-carboxylate]
15 | 4.3 nM | O=C(CCC(F)(F)F)N1CC=C(c2cccn3nc(Nc4ccc(C(=O)N5CCN(Cc6ccccn6)CC5)cc4)nc23)CC1 [Example 2-95, 4,4,4-trifluoro-1-[4-[2-[4-[4-(2-pyridylmethyl)piperazine-1-carbonyl]anilino]-[1,2,4]triazolo[1,5-a]pyridin-8-yl]-3,6-dihydro-2H-pyridin-1-yl]butan-1-one]
16 | 5.2 nM | CN(CCc1ccncc1)C(=O)c1ccc(Nc2nc3c(C4=CCN(C(=O)CCC(F)(F)F)CC4)cccn3n2)cc1 [Example 2-96, N-methyl-N-[2-(4-pyridyl)ethyl]-4-[[8-[1-(4,4,4-trifluorobutanoyl)-3,6-dihydro-2H-pyridin-4-yl]-[1,2,4]triazolo[1,5-a]pyridin-2-yl]amino]benzamide]
17 | 13.7 nM | CN(C)C1CCN(C(=O)c2ccc(Nc3nc4c(C5=CCN(C(=O)CCC(F)(F)F)CC5)cccn4n3)cc2)CC1 [Example 2-97, 1-[4-[2-[4-[4-(dimethylamino)piperidine-1-carbonyl]anilino]-[1,2,4]triazolo[1,5-a]pyridin-8-yl]-3,6-dihydro-2H-pyridin-1-yl]-4,4,4-trifluoro-butan-1-one]
18 | 11.5 nM | CN1CCN(C(=O)c2ccc(Nc3nc4c(C5=CCN(C(=O)CCC(F)(F)F)CC5)cccn4n3)cc2)CC1 [Example 2-98, 4,4,4-trifluoro-1-[4-[2-[4-(4-methylpiperazine-1-carbonyl)anilino]-[1,2,4]triazolo[1,5-a]pyridin-8-yl]-3,6-dihydro-2H-pyridin-1-yl]butan-1-one]
19 | 29.4 nM | CN1CCN(CCCNC(=O)c2ccc(Nc3nc4c(C5=CCN(C(=O)CCC(F)(F)F)CC5)cccn4n3)cc2)CC1 [Example 2-99, N-[3-(4-methylpiperazin-1-yl)propyl]-4-[[8-[1-(4,4,4-trifluorobutanoyl)-3,6-dihydro-2H-pyridin-4-yl]-[1,2,4]triazolo[1,5-a]pyridin-2-yl]amino]benzamide]
20 | 84.7 nM | O=C(NCCN1CCC(O)CC1)c1ccc(Nc2nc3c(C4=CCN(C(=O)CCC(F)(F)F)CC4)cccn3n2)cc1 [Example 2-100, N-[2-(4-hydroxy-1-piperidyl)ethyl]-4-[[8-[1-(4,4,4-trifluorobutanoyl)-3,6-dihydro-2H-pyridin-4-yl]-[1,2,4]triazolo[1,5-a]pyridin-2-yl]amino]benzamide]
21 | 33.7 nM | CN(C)CCN1CCN(C(=O)c2ccc(Nc3nc4c(C5=CCN(C(=O)CCC(F)(F)F)CC5)cccn4n3)cc2)CC1 [Example 2-102, 1-[4-[2-[4-[4-[2-(dimethylamino)ethyl]piperazine-1-carbonyl]anilino]-[1,2,4]triazolo[1,5-a]pyridin-8-yl]-3,6-dihydro-2H-pyridin-1-yl]-4,4,4-trifluoro-butan-1-one]
22 | 145 nM | O=C(CCC(F)(F)F)N1CC=C(c2cccn3nc(Nc4ccc(C(=O)N5CCCC(c6cc7cccnc7[nH]6)C5)cc4)nc23)CC1 (centres unmarked) [Example 2-103, 4,4,4-trifluoro-1-[4-[2-[4-[3-(1H-pyrrolo[2,3-b]pyridin-2-yl)piperidine-1-carbonyl]anilino]-[1,2,4]triazolo[1,5-a]pyridin-8-yl]-3,6-dihydro-2H-pyridin-1-yl]butan-1-one]
23 | 59.7 nM | CN(Cc1ccccc1-c1cccnc1)C(=O)c1ccc(Nc2nc3c(C4=CCN(C(=O)CCC(F)(F)F)CC4)cccn3n2)cc1 [Example 2-104, N-methyl-N-[[2-(3-pyridyl)phenyl]methyl]-4-[[8-[1-(4,4,4-trifluorobutanoyl)-3,6-dihydro-2H-pyridin-4-yl]-[1,2,4]triazolo[1,5-a]pyridin-2-yl]amino]benzamide]
24 | 373 nM | CN1CCC(N(C)C(=O)c2ccc(Nc3nc4c(C5=CCN(C(=O)C6CCOCC6)CC5)cccn4n3)cc2)CC1 [Example 2-105, N-methyl-N-(1-methyl-4-piperidyl)-4-[[8-[1-(tetrahydropyran-4-carbonyl)-3,6-dihydro-2H-pyridin-4-yl]-[1,2,4]triazolo[1,5-a]pyridin-2-yl]amino]benzamide]
25 | 8570 nM | CNC(=O)N1CC=C(c2cccn3nc(Nc4ccc(C(=O)N(C)C5CCN(C)CC5)cc4)nc23)CC1 [Example 2-106, N-methyl-4-[2-[4-[methyl-(1-methyl-4-piperidyl)carbamoyl]anilino]-[1,2,4]triazolo[1,5-a]pyridin-8-yl]-3,6-dihydro-2H-pyridine-1-carboxamide; hydrochloride]
26 | 422 nM | CN1CCC(N(C)C(=O)c2ccc(Nc3nc4c(C5=CCN(C(=O)C6CCOC6)CC5)cccn4n3)cc2)CC1 (centres unmarked) [Example 2-107, N-methyl-N-(1-methyl-4-piperidyl)-4-[[8-[1-(tetrahydrofuran-3-carbonyl)-3,6-dihydro-2H-pyridin-4-yl]-[1,2,4]triazolo[1,5-a]pyridin-2-yl]amino]benzamide; hydrochloride]
